In US11992561B2 (priority 2020, dated 2024):

How the values were obtained:
[1] = Clinical study: plasma concentrations and pharmacokinetics after (S)-ketamine OTF; details: for Tmax: calculated using a PK model (NONMEM); for plasma level of the metabolite following administration of an OTF as compared to intravenous administration of 20 mg (S)-ketamine: FIGS. 3-8
[2] = Clinical study: safety, side effects, taste, psychedelic effects (Bowdle, Bond and Lader questionnaires)

## CNC1(c2ccccc2Cl)CCCCC1=O (stereo not shown) [ketamine]
[1]; FIGS. 9-11
  plasma levels of ketamine, intravenous administration versus administration of an OTF: higher for intravenous administration

## N[C@]1(c2ccccc2Cl)CCCCC1=O [(S)-Norketamine]
[1]; 50 mg (S)-Ketamine OTF
  Tmax: 1.02 h
[1]; 100 mg (S)-Ketamine OTF
  Tmax: 1.3 h
[1]; All data, 2 × 50 mg (S)-ketamine OTF (formulation 15)
  Cmax plasma concentration: 330 ng/mL
[1]; Buccally, 2 × 50 mg (S)-ketamine OTF, n=5
  Cmax plasma concentration: 450 ng/mL
[1]
  plasma level of the metabolite following administration of an OTF as compared to intravenous administration of 20 mg (S)-ketamine: higher

## CNC1(c2ccccc2Cl)CCCCC1=O (racemic) [(S)-ketamine, (S)-(±)-2-(2-chlorophenyl)-2-(methylamino)cyclohexan-1-one]
[2]; 20 mg (S)-ketamine IV
  Dizziness (number of adverse events): 4
  Drowsiness (number of adverse events): 3
  Dry eyes (number of adverse events): 1
  Headache (number of adverse events): 3
  High blood pressure (SBP > 180 mm Hg) (number of adverse events): 2
  Nausea (number of adverse events): 2
  Sweating (number of adverse events): 1
  Total (number of adverse events): 17
  Whistling noise in the ear (number of adverse events): 1
[2]; 50 mg (S)-ketamine as OTF
  Blurred vision (number of adverse events): 1
  Bradykinesia (number of adverse events): 1
  Dizziness (number of adverse events): 1
  Feeling of drunkenness (number of adverse events): 2
  Headache (number of adverse events): 1
  Nausea (number of adverse events): 1
  Total (number of adverse events): 7
[2]; 100 mg (S)-ketamine as OTF
  Bradykinesia (number of adverse events): 1
  Dizziness (number of adverse events): 3
  Headache (number of adverse events): 2
  Nausea (number of adverse events): 1
  Numbness of the tongue (number of adverse events): 2
  Total (number of adverse events): 9

## N[C@]1(c2ccccc2Cl)CCC[C@H](O)C1=O [(S)-Hydroxynorketamine]
[1]; 50 mg (S)-Ketamine OTF
  Tmax: 1.35 h
[1]; 100 mg (S)-Ketamine OTF
  Tmax: 1.82 h
[1]; All data, 50 mg (S)-ketamine OTF (formulation 15)
  Cmax plasma concentration: 94 ng/mL
[1]; Buccally, 50 mg (S)-ketamine OTF, n=5
  Cmax plasma concentration: 81 ng/mL
[1]
  plasma level of the metabolite following administration of an OTF as compared to intravenous administration of 20 mg (S)-ketamine: higher
[1]; Sublingually, 50 mg (S)-ketamine OTF, n=15
  Cmax plasma concentration: 98 ng/mL
